Values quoted from earlier work in patent US20240401031A1, “Platform Using iPSC-Derived Cardiomyocytes Carrying Gene Variants as Models of Cardiac Disease and Drug-Response” (SRI INTERNATIONAL, priority 2021, published 2024).

Conditions: source CredibleMeds

Row | Structure (SMILES) | Risk (Torsade de Pointes)
1 | COc1ccc(CN2C3CC2CN(c2ccc(-c4cc(OCC(C)(C)O)cn5ncc(C#N)c45)cn2)C3)cn1 [Selpercatinib] | (PR)
2 | COc1cccc(C2(O)CCCCC2CN(C)C)c1 (centres unmarked) [Tramadol] | (PR)
3 | Cc1nc2n(c(=O)c1CCN1CCC(c3noc4cc(F)ccc34)CC1)CCCC2O (centres unmarked) [Paliperidone] | (PR)
4 | CN[C@@H](C)Cc1ccccc1 [Methamphetamine] | (SR)
5 | OCCN1CCN(CC/C=C2/c3ccccc3Sc3ccc(Cl)cc32)CC1 [Zuclopenthixol] | (PR)
6 | CCc1cc(/C(C)=N/OCc2ccc(C3CCCCC3)c(C(F)(F)F)c2)ccc1CN1CC(C(=O)O)C1 [Siponimod] | (PR)
7 | CC(C)(C)NCC(O)c1cc(O)cc(O)c1 (centres unmarked) [Terbutaline] | (SR)
8 | C[C@H]1NCc2cc(-c3ccc4c(=O)c(C(=O)O)cn(C5CC5)c4c3OC(F)F)ccc21 [Garenoxacin] | (CR)
9 | CC(C)N(CCC(C(N)=O)(c1ccccc1)c1ccccn1)C(C)C (centres unmarked) [Disopyramide] | (KR)
10 | NC(N)=Nc1nc(CSCCC(N)=NS(N)(=O)=O)cs1 [Famotidine] | (CR)
11 | CCN(CC)CCCC(C)Nc1ccnc2cc(Cl)ccc12 (centres unmarked) [Chloroquine] | (KR)
12 | Cc1cccc([C@H](C)c2cnc[nH]2)c1C [Dexmedetomidine] | (PR)
13 | CN(CCOc1ccc(NS(C)(=O)=O)cc1)CCc1ccc(NS(C)(=O)=O)cc1 [Dofetilide] | (KR)
14 | COc1ccc(NC(=O)c2ccc(C(=N)N(C)C)cc2)c(C(=O)Nc2ccc(Cl)cn2)c1 [Betrixaban] | (PR)
15 | CCc1nc(C(N)=O)c(Nc2ccc(N3CCC(N4CCN(C)CC4)CC3)c(OC)c2)nc1NC1CCOCC1 [Gilteritinib] | (PR)
16 | O=C1CCc2ccc(OCCCCN3CCN(c4cccc(Cl)c4Cl)CC3)cc2N1 [Aripiprazole] | (PR)
17 | COC(=O)[C@H]1[C@@H](OC(=O)c2ccccc2)C[C@@H]2CC[C@H]1N2C [Cocaine] | (KR)
18 | COc1ccc(CCN2CCC(Nc3nc4ccccc4n3Cc3ccc(F)cc3)CC2)cc1 [Astemizole] | (KR)
19 | CCN(CC)CCNC(=O)c1c(C)[nH]c(/C=C2\C(=O)Nc3ccc(F)cc32)c1C [Sunitinib] | (PR)
20 | O=C1CCc2cc(OCCCCc3nnnn3C3CCCCC3)ccc2N1 [Cilostazol] | (KR)
21 | CCCCCCCN(CC)CCCC(O)c1ccc(NS(C)(=O)=O)cc1 (centres unmarked) [Ibutilide] | (KR)
22 | COc1ccc2nc([S@@+]([O-])Cc3ncc(C)c(OC)c3C)[nH]c2c1 [Esomeprazole] | (CR)
23 | CCN(CCO)CCCC(C)Nc1ccnc2cc(Cl)ccc12 (centres unmarked) [Hydroxychloroquine] | (KR)
24 | N#Cc1ccnc(N2C(=O)CC[C@H]2C(=O)N(c2cncc(F)c2)[C@H](C(=O)NC2CC(F)(F)C2)c2ccccc2Cl)c1 [Ivosidenib] | (PR)
25 | CC(NCCc1ccc(O)cc1)C(O)c1ccc(O)cc1 (centres unmarked) [Ritodrine] | (SR)
26 | CN(C)CCOc1ccc(/C(=C(/CCCl)c2ccccc2)c2ccccc2)cc1 [Toremifene] | (PR)
27 | COc1ccc2[nH]c([S+]([O-])Cc3ncc(C)c(OC)c3C)nc2c1 (centres unmarked) [Omeprazole] | (CR)

Row | Structure (SMILES) | Risk (Torsade de Pointes)
28 | O=C1c2cccc3c2[C@H](CCC3)CN1[C@@H]1CN2CCC1CC2 [Palonosetron] | (PR)
29 | CCCS(=O)(=O)Nc1ccc(F)c(C(=O)c2c[nH]c3ncc(-c4ccc(Cl)cc4)cc23)c1F [Vemurafenib] | (PR)
30 | FC(F)(F)C(F)(F)C(F)(F)F [Perflutren] | (PR)
31 | Cn1c(CCCC(=O)O)nc2cc(N(CCCl)CCCl)ccc21 [Bendamustine] | (PR)
32 | CCc1ccc(C(=O)C(C)CN2CCCCC2)cc1 (centres unmarked) [Eperisone] | (CR)
33 | CC(C)(N)Cc1ccccc1 [Phentermine] | (SR)
34 | Cl.Cl.OCCN1CCN(CCC=C2c3ccccc3Sc3ccc(C(F)(F)F)cc32)CC1 (mixture of isomers) [Flupentixol] | (PR)
35 | O=C(c1ccc(F)cc1)C1CCN(CCn2c(=O)[nH]c3ccccc3c2=O)CC1 [Ketanserin] | (PR)
36 | NC(=O)C1(N2CCCCC2)CCN(CCCC(=O)c2ccc(F)cc2)CC1 [Pipamperone] | (PR)
37 | CC(C)Oc1ccc(-c2nc(-c3cccc4c3CC[C@@H]4NCCO)no2)cc1C#N [Ozanimod] | (PR)
38 | C=CC[C@@H]1/C=C(\C)C[C@H](C)C[C@H](OC)[C@H]2O[C@@](O)(C(=O)C(=O)N3CCCC[C@H]3C(=O)O[C@H](/C(C)=C/[C@@H]3CC[C@@H](O)[C@H](OC)C3)[C@H](C)[C@@H](O)CC1=O)[C@H](C)C[C@@H]2OC [Tacrolimus] | (PR)
39 | CCN1CCCC1CNC(=O)c1cc(S(=O)(=O)CC)c(N)cc1OC (centres unmarked) [Amisulpride] | (CR)
40 | CCCCCOC(=O)Nc1nc(=O)n([C@@H]2O[C@H](C)[C@@H](O)[C@H]2O)cc1F [Capecitabine] | (PR)
41 | Cc1nccn1CC1CCc2c(c3ccccc3n2C)C1=O (centres unmarked) [Ondansetron] | (KR)
42 | CC(=O)NC[C@H]1CN(c2ccc(N3CCOCC3)c(F)c2)C(=O)O1 [Linezolid] | (PR)
43 | CCCCCCCCc1ccc(CCC(N)(CO)CO)cc1 [Fingolimod] | (PR)
44 | CC(CN1c2ccccc2Sc2ccccc21)N(C)C (centres unmarked) [Promethazine] | (PR)
45 | NC(=O)OCC(COC(N)=O)c1ccccc1 [Felbamate] | (PR)
46 | CCC(=O)C(C[C@@H](C)N(C)C)(c1ccccc1)c1ccccc1 [Levomethadone] | (PR)
47 | N[C@H](C(=O)O)[C@H](O)c1ccc(O)c(O)c1 [Droxidopa] | (SR)
48 | O=c1[nH]cc(F)c(=O)[nH]1 [Fluorouracil] | (PR)
49 | Clc1ccc(CCCOCCCN2CCCCC2)cc1 [Pitolisant] | (PR)
50 | CCN1CCC[C@H]1CNC(=O)c1cc(S(N)(=O)=O)ccc1OC [Levosulpiride] | (KR)
51 | CCN1CCCC1CNC(=O)c1cc(S(N)(=O)=O)ccc1OC (centres unmarked) [Sulpiride] | (KR)
52 | C=C1C[C@@H]2CC[C@@]34C[C@H]5O[C@H]6[C@@H](O3)[C@H]3O[C@H](CC[C@@H]3O[C@H]6[C@H]5O4)CC(=O)C[C@@H]3[C@@H](OC)[C@@H](C[C@H](O)CN)O[C@H]3C[C@H]3O[C@@H](CC[C@@H]1O2)C[C@@H](C)C3=C [Eribulin] | (PR)
53 | CC(C)C[C@H](NC(=O)[C@H](Cc1ccccc1)NC(=O)c1cnccn1)B(O)O [Bortezomib] | (PR)
54 | O=C1Cc2cc(CCN3CCN(c4nsc5ccccc45)CC3)c(Cl)cc2N1 [Ziprasidone] | (CR)

Row | Structure (SMILES) | Risk (Torsade de Pointes)
55 | NS(=O)(=O)c1cc(C(=O)O)c(NCc2ccco2)cc1Cl [Furosemide] | (CR)
56 | Cc1cc(C(C)(C)C)cc(C)c1CC1=NCCN1 [Xylometazoline] | (SR)
57 | CC(C)COCC(CN(Cc1ccccc1)c1ccccc1)N1CCCC1 (centres unmarked) [Bepridil] | (KR)
58 | FCOC(C(F)(F)F)C(F)(F)F [Sevoflurane] | (KR)
59 | COc1cc2c(Nc3ccc(Br)cc3F)ncnc2cc1OCC1CCN(C)CC1 [Vandetanib] | (KR)
60 | COc1ccc(Cc2nccc3cc(OC)c(OC)cc23)cc1OC [Papaverine] | (KR)
61 | COc1cc2nc(N(C)CCCNC(=O)C3CCCO3)nc(N)c2cc1OC (centres unmarked) [Alfuzosin] | (PR)
62 | O=c1[nH]c2ccccc2n1C1CCN(CCCC(c2ccc(F)cc2)c2ccc(F)cc2)CC1 [Pimozide] | (KR)
63 | C[C@@H](Cc1ccccc1)N(C)Cc1ccccc1 [Benzphetamine] | (SR)
64 | C[C@@H](Oc1cc(-c2cnn(C3CCNCC3)c2)cnc1N)c1c(Cl)ccc(F)c1Cl [Crizotinib] | (PR)
65 | CN/C(=N/CCSCc1nc[nH]c1C)NC#N [Cimetidine] | (CR)
66 | CC(C)/N=c1\cc2n(-c3ccc(Cl)cc3)c3ccccc3nc-2cc1Nc1ccc(Cl)cc1 [Clofazimine] | (PR)
67 | CS(=O)(=O)CCNCc1ccc(-c2ccc3ncnc(Nc4ccc(OCc5cccc(F)c5)c(Cl)c4)c3c2)o1 [Lapatinib] | (PR)
68 | COc1cc2nccc(Oc3ccc(NC(=O)C4(C(=O)Nc5ccc(F)cc5)CC4)cc3)c2cc1OC [Cabozantinib] | (PR)
69 | CCC(C)n1ncn(-c2ccc(N3CCN(c4ccc(OCC5COC(Cn6cncn6)(c6ccc(Cl)cc6Cl)O5)cc4)CC3)cc2)c1=O (centres unmarked) [Itraconazole] | (CR)
70 | CN1CCCCC1CCN1c2ccccc2Sc2ccc([S+](C)[O-])cc21 (centres unmarked) [Mesoridazine] | (KR)
71 | COc1cc(NC(C)CCCN)c2ncccc2c1 (centres unmarked) [Primaquine] | (PR)
72 | CN(C)CC/C=C1/c2ccccc2Sc2ccc(Cl)cc21 [Chlorprothixene] | (KR)
73 | COc1ccnc(C[S+]([O-])c2nc3ccc(OC(F)F)cc3[nH]2)c1OC (centres unmarked) [Pantoprazole] | (CR)
74 | CC(=O)N1CCN(c2ccc(OCC3COC(Cn4ccnc4)(c4ccc(Cl)cc4Cl)O3)cc2)CC1 (centres unmarked) [Ketoconazole] | (CR)
75 | Nc1nc(CC(=O)Nc2ccc(CCNC[C@H](O)c3ccccc3)cc2)cs1 [Mirabegron] | (PR)
76 | C[C@]12CC[C@H](O)CC1=CC[C@@H]1[C@@H]2CC[C@]2(C)C(c3cccnc3)=CC[C@@H]12 [Abiraterone] | (CR)
77 | C[C@H](N)Cc1ccccc1 [Dextroamphetamine] | (SR)
78 | CCC(=O)C(CC(C)N(C)C)(c1ccccc1)c1ccccc1 (centres unmarked) [Methadone] | (KR)
79 | O=[N+]([O-])c1cn2c(n1)OC[C@@H](OCc1ccc(OC(F)(F)F)cc1)C2 [Pretomanid] | (PR)
80 | CC(N)Cc1ccccc1 (centres unmarked) [Amphetamine] | (SR)
